Results reported in PubChem BioAssay AID1645864 (Buhrlage Lab, Dana-Farber Cancer Institute and Novartis …, 2021).
Activity calls are given as the source filed them.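 The calls were made as follows: active = maximal inhibition of USP17 at or above 30% in the confirmation dose-response, a value not among the printed readouts; inactive = the rest.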

Each compound was assayed against Ubiquitin carboxyl-terminal hydrolase 17-like protein 5 (Homo sapiens) (UniProt A8MUK1) (assay: ubiquitin-specific protease 17 DUB inhibitors, concentration-effect assay, cell-free, verification of initial screening actives (AID 1645864)). Conditions: purified USP17, ubiquitin-rhodamine cleavage fluorescence, 3 h.
Chain of Ubiquitin carboxyl-terminal hydrolase 17-like protein 5 (Homo sapiens) (A8MUK1 whole entry, looked up): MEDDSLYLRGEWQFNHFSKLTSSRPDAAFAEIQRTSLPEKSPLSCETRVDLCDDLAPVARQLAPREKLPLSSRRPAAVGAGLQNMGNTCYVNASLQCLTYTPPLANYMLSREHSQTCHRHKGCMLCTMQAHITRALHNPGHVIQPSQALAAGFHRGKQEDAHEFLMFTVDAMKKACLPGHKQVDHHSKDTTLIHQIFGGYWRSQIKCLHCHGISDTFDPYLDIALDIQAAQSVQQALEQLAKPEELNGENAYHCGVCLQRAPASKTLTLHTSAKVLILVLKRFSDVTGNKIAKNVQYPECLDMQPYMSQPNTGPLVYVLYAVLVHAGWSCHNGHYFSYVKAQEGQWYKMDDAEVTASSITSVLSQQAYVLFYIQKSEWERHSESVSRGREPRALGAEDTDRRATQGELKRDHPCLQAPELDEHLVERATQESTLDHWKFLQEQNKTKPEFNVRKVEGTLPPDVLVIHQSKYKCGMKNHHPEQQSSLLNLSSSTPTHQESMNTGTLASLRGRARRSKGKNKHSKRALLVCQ

IC50	SMILES
18.2 µM	O=C(O)CCCCCN1C(=O)CC(c2ccc(Cl)cc2)CC1=O
> 50 µM (inactive)	C[C@H](NC(=O)Cc1ccccc1F)c1nc2cc(-c3ccccc3F)ncn2n1
28.7 µM	Fc1cccc(Cn2cc(-c3noc(-c4ccncc4)n3)nn2)c1
> 50 µM (inactive)	Cc1ccccc1NC(=O)Cn1cc(-c2nc(C3CC3)no2)ccc1=O
20.9 µM	CCOCCCn1c(SCC(=O)Nc2ccccc2C(F)(F)F)nc2ccccc2c1=O
18 µM	Cc1ccc(Nc2nc(O)c(CC(=O)Nc3ccccc3C)s2)cc1C
> 50 µM (inactive)	CCn1c(CNc2ccc(Cl)cc2)nnc1SCC(=O)Nc1ccccc1
> 50 µM (inactive)	O=c1c2c(ccn1Cc1cc(F)ccc1F)ccn2Cc1cccnc1
1.98 µM	Cc1ccc2[nH]c(=O)c(-c3nc4ccc(C)cn4c3NCc3ccc(F)cc3)cc2c1
6.19 µM	COc1ccc(C(=O)Nc2sc3c(c2C(=O)NCc2cccnc2)CCCC3)cc1
> 50 µM (inactive)	O=C(NCc1cccnc1)C1CCN(c2cnc(N3CCCCCC3)nc2)CC1
> 50 µM (inactive)	Cc1ccc(NC(=O)c2nnn(-c3ccccc3Br)c2C)cc1C
> 50 µM (inactive)	O=C(c1ccc(COc2cccc3ccccc23)o1)N1CCC(Cc2ccccc2)CC1
> 50 µM (inactive)	CSc1ccc(CNCc2c(C(=O)O)n(Cc3ccccc3)c3cc(C)ccc23)cc1
34.5 µM	O=C(COc1cccc(C(=O)NCc2ccccc2)c1)Nc1ccc(Oc2ccccc2)cc1
4.35 µM	CCOc1ccc(NC(=O)Cn2c(=O)n(CCC(=O)NCc3ccccc3OC)c(=O)c3ccccc32)cc1
6.96 µM	CC1CCc2sc(NC(=O)c3ccccc3Oc3ccccc3)c(C(N)=O)c2C1 (stereo not drawn)
2.06 µM	Cc1nc(C(=O)NC2(O)C(=O)c3ccccc3C2=O)cs1
> 50 µM (inactive)	CN(C)C1CCN(C(=O)c2cc(-c3ccn(-c4ccccc4)n3)n3ccccc23)CC1
19.1 µM	COc1cccc(N2C(=O)N(CC(=O)NCc3ccc(Cl)cc3)c3ccccc3S2(=O)=O)c1
1.75 µM	Cc1cc(C)c(O)c(-c2cc(C(=O)Nc3ccccc3Cl)[nH]n2)c1
1.52 µM	CC1=C(Cn2c3cccc(=O)c-3nc3ccccc32)CCC(C)(C)C1
> 50 µM (inactive)	CCN1CCN(C(=O)CCCN(c2ccccc2)S(C)(=O)=O)CC1
22.5 µM	Cc1c(C)n(-c2ccccc2)c2ncn(CC(=O)NC(C)c3ccccc3)c(=O)c12 (stereo not drawn)
> 50 µM (inactive)	CCOC(=O)c1ccc(-n2c(=O)c(C#N)cc3c(=O)n4ccccc4nc32)cc1

IC50	SMILES
> 50 µM (inactive)	CC1Oc2ccccc2C(=O)N(Cc2ccc([N+](=O)[O-])cc2)C1=O (stereo not drawn)
28.9 µM	COc1ccccc1-c1nc(-c2cn(-c3ccc(C)cc3)nn2)no1
> 50 µM (inactive)	COc1ccc(COC(=O)C2=C(C)NC(=O)CC2c2cccc([N+](=O)[O-])c2)cc1 (stereo not drawn)
9.82 µM	COc1cc(NC(=O)Cc2ccccc2)ccc1NC(=O)c1cc2ccccc2o1
> 50 µM (inactive)	CC(C)(C)C(=O)C1C2C(=O)N(Cc3ccccc3)C(=O)C2C2c3ccccc3C=CN12 (stereo not drawn)
4.53 µM	O=C(NC1CCCC1)c1cccc(-c2ccc(N3CCCC3)nc2)c1
11.4 µM	O=C(CC(C(=O)Nc1ccc2c(c1)OCO2)C(=O)c1ccccc1)Nc1ccc(Cl)cc1F (stereo not drawn)
1.33 µM	Cc1ccc(-c2nc(NC(=O)COc3ccc(Cl)cc3)no2)cc1
0.577 µM	O=C(Nc1ccc(-c2cn3ccccc3n2)cc1)C1C=C2C=C(Br)C=CC2OC1=O (stereo not drawn)
> 50 µM (inactive)	CCOC(=O)c1ccc(NC(=O)C[n+]2cc(-c3ccc(Cl)cc3)n3c2CCC3)cc1
> 50 µM (inactive)	Cc1ccc(S(=O)(=O)N(C)C)cc1NC(=O)Cc1ccc(Cl)c(Cl)c1
> 50 µM (inactive)	Fc1cnc(N2CC[C@H]3CO[C@H](CNc4ncccn4)[C@H]3C2)nc1
1.55 µM	Cn1c2ccccc2c(=O)c2c(=O)n(Cc3ccccc3)c(-c3ccco3)nc21
> 50 µM (inactive)	O=C(NCc1ccncc1)C1CCN(c2cncnc2N2CCCCC2)CC1
9.36 µM	COc1ccc(NC(=O)C2CC(=O)Nc3c(-c4ccc(Cl)cc4)cnn32)c(OC)c1 (stereo not drawn)
38.3 µM	Cc1ccc(NC(=O)c2ccc3c(c2)N(S(C)(=O)=O)CC3)cc1
> 50 µM (inactive)	CCOc1ccc(S(=O)(=O)Nc2ccc[nH]c2=O)cc1
> 50 µM (inactive)	c1coc(CNc2nc3ccccc3n3nnnc23)c1
> 50 µM (inactive)	Cc1nc(-c2noc(-c3ccncc3)n2)cn1CC(=O)N1CCN(c2ccc(F)cc2)CC1
> 50 µM (inactive)	O=C(NCc1ccc2c(c1)OCO2)c1nn(C23CC4CC(CC(C4)C2)C3)cc1[N+](=O)[O-]
2.35 µM	CCOC(=O)c1cnn(-c2ccc(C(=O)Nc3ccc(C)c(Cl)c3)cc2)c1N
44.7 µM	Cc1ccn(-c2ccc(NC(=O)c3ccccc3Sc3ccccc3C#N)cc2)n1
3.16 µM	Cc1ccc2c(c1)c(=O)c(C(=O)c1ccccc1)cn2CC(=O)Nc1ccc2c(c1)OCCO2
> 50 µM (inactive)	CCn1cc(NC(=O)CN2CCC3(CC=CCOC3)CC2)c(C)n1
41.7 µM	CCCc1cc(=O)n2[nH]c(COc3ccccc3)c(-c3ccccc3)c2n1

IC50	SMILES
44 µM	CN(Cc1ccccc1)S(=O)(=O)c1ccc(S(=O)(=O)N2CCN(C(=O)c3cccnc3)CC2)cc1
30.3 µM	COc1ccc(-c2cc(-c3ccc(F)cc3)[nH]c(=O)c2C#N)cc1
> 50 µM (inactive)	COc1cccc(CNC(=O)C2=Cc3cccc(OC)c3OC2)c1
> 50 µM (inactive)	O=C(NC1CCS(=O)(=O)C1)c1ccc(N2CCC(Cc3ccccc3)CC2)nn1 (stereo not drawn)
1.17 µM	O=C(Nc1ccc(-c2cn3ccsc3n2)cc1)c1ccc(Cl)c([N+](=O)[O-])c1
2.05 µM	CC1=C(C)C(c2c(-c3ccc(C)cc3)[nH]c3ccccc23)N(C(C)(C)C)C1=O (stereo not drawn)
> 50 µM (inactive)	O=C(Nc1cc(Cl)ccc1-n1cncn1)c1ccc(S(=O)(=O)N2CCCC2)cc1
22.6 µM	O=C(/C=C/c1ccco1)c1cccc([N+](=O)[O-])c1
29.2 µM	N#Cc1cccnc1N1CCN(C(=O)Nc2cccc3ccccc23)CC1
> 50 µM (inactive)	O=C(CN1C(=O)COc2ccc(Cl)cc21)Nc1cccc2ncccc12
> 50 µM (inactive)	COc1cnc(-c2ccccn2)nc1Sc1ccc(C)cc1
38.4 µM	O=C1N[C@@H](Cc2ccccc2)C(=O)N2[C@H]3Nc4ccccc4[C@@]3([C@]34C[C@H]5C(=O)N[C@@H](Cc6ccccc6)C(=O)N5[C@H]3Nc3ccccc34)C[C@@H]12
2.99 µM	Cc1cc(N2CCN(c3ncccn3)CC2)nc2ccc(NC(=O)c3ccncc3)cc12
15 µM	COc1ccc(/C=C/C(=O)Nc2c3c(nc4c2CCC4)CCCC3)cc1
> 50 µM (inactive)	Cc1ccc(Nc2nc(Nc3cccc(F)c3)nc3nccnc23)c(C)c1
> 50 µM (inactive)	O=C1/C(=C/c2cn(-c3ccccc3)nc2-c2ccc3c(c2)OCCO3)Cc2ccccc21
28.6 µM	Cc1cccc(OCCn2c(CCNC(=O)C3CCCCC3)nc3ccccc32)c1
3.31 µM	Clc1cncc(Oc2nc(-c3cccnc3)nc3ccccc23)c1
44.1 µM	COc1ccccc1NC(=O)c1nn(-c2cccc(F)c2)c(OC)cc1=O
1.67 µM	Cc1nc(SCC(=O)Nc2cc(Cl)ccc2C)c2oc3ccccc3c2n1
34.1 µM	O=C(CN1C(=O)c2ccccc2Sc2ccc(C(=O)N3CCCC3)cc21)Nc1ccccc1Cl
23.5 µM	COc1ccc(Cl)c(NC(=O)C2CC(=O)Nc3cc(-c4ccccc4)nn32)c1 (stereo not drawn)
4.01 µM	NC(=O)c1nc(-c2cccnc2)nc2c1[nH]c(=O)n2-c1ccc2c(c1)OCO2
10 µM	CCOc1ccc(-c2noc(-c3nn(-c4cccc(OC)c4)ccc3=O)n2)cc1
41.4 µM	COc1ccc(-c2nc3n(n2)C(c2cccc(O)c2)C2=C(CCCC2=O)N3)cc1 (stereo not drawn)

IC50	SMILES
27.2 µM	CC(C)c1ccc(C(C(=O)NC2CCCCC2)N(C(=O)c2cnccn2)c2cccc(F)c2)cc1 (stereo not drawn)
3.83 µM	CC(=O)Nc1cc2cc(-n3cccc3)ccc2oc1=O
23.2 µM	NS(=O)(=O)c1ccc(CNS(=O)(=O)c2ccc(-c3ccccn3)s2)cc1
21.2 µM	Cc1ccc(Cn2cc(-c3noc(-c4ccc[nH]4)n3)nn2)cc1
> 50 µM (inactive)	Cc1cccc(C(=O)N2CCc3cc(-c4nc(NC(=O)CN5CCc6ccccc6C5)sc4C)ccc32)c1
29.8 µM	Cc1ccc(S(=O)(=O)c2cnc(SCC(=O)Nc3ccc(Cl)cc3)nc2N)cc1C
13.1 µM	O=C(CSc1ccc2nnc(-c3ccccc3)n2n1)N1CCCc2ccccc21
> 50 µM (inactive)	CC(C)NS(=O)(=O)c1ccc(OCC(=O)N2CCC(Cc3ccccc3)CC2)cc1
34.9 µM	CCC1(C)Cc2c(sc3nc(SCC(=O)Nc4ccc(C(C)=O)cc4)nc(N)c23)CO1 (stereo not drawn)
22.3 µM	COc1ccccc1-c1nc(Cn2nnc(C(=O)Nc3cc(C)cc(C)c3)c2N)c(C)o1
25.4 µM	O=C(NCc1ccc(F)cc1)c1cc(-n2cnnn2)ccc1Cl
10.1 µM	COc1cc(OC)cc(-n2c(=O)c3sccc3n(CC(=O)Nc3ccc(C)cc3)c2=O)c1
> 50 µM (inactive)	N#Cc1ccc(NC(=O)COC(=O)c2ccc3ccccc3n2)cc1
> 50 µM (inactive)	Cc1ccc(NC(=O)c2cc(=O)n(C)c3c2c(=O)n(C)c(=O)n3C)c(C)c1
> 50 µM (inactive)	COCCNC(=O)c1ccn(-c2ccc3ccc(-c4cnn(C)c4)cn23)n1
4.85 µM	Cc1ccc(Cl)c(-n2nnc(C(=O)Nc3ccccc3C#N)c2C)c1
> 50 µM (inactive)	O=C1CC(c2ccco2)Cc2[nH]c(=O)c(-c3nc(-c4ccc(Cl)cc4)cs3)cc21 (stereo not drawn)
19.5 µM	O=C(NC1(O)C(=O)c2ccccc2C1=O)c1ccc(-c2csnn2)cc1
8.23 µM	Cn1c(-c2nnc(SCC(=O)NCCc3ccccc3)o2)cc2ccccc21
> 50 µM (inactive)	CN(C)c1ccc(CCN2CCc3nc4cccnc4cc3C2)cc1
0.407 µM	Cc1cc(O)c2c3c(c(O)cc2c1)C(=O)c1c(O)cccc1C3=O
2.67 µM	O=c1c2ccccc2oc2nc(-c3cccs3)n(-c3ccccc3)c(=O)c12

SMILES	IC50
CC[C@@]1(O)C[C@H](OC2CC(N(C)C)C(OC3CC(O)C(OC4CCC(=O)C(C)O4)C(C)O3)C(C)O2)c2c(cc3c(c2O)C(=O)c2c(O)ccc(O)c2C3=O)[C@H]1C(=O)OC (stereo partly drawn)	2.51 µM
